{"source": "patent US20250008983A1", "about": "“COMPOSITIONS CONTAINING PEROXYACIDS TO CONTROL PATHOGEN GROWTH IN ANIMAL FEED AND RELATED METHODS” (KEMIN INDUSTRIES, INC., priority 2023, published 2025)", "key": {"extracted Salmonella DNA": {"system": "extracted Salmonella DNA", "assay": "DNA interaction Assay 1: treatment added to extracted DNA directly", "format": "biochemical", "conditions": "1 kg/T; one hour at room temperature; n = 3", "method": "Method (Assay 1: Treatment added to extracted DNA directly). One mL of cell suspension (ca. 10^8 cfu/mL in TSBYE) was harvested by centrifugation at 5000 rcf for 10 minutes. The supernatant was discarded and resuspended as detailed in the protocol provided by the supplier. DNA was extracted using the QIAamp DNA Mini kit (Cat #51304, Qiagen). The samples were incubated at 56° C. for two hours and eluted with 200 uL of nuclease-free water. The same eluent was run through the column twice to increase the DNA concentration. Extracted DNA was quantified using Quant-iT dsDNA high-sensitivity assay kit (Q33120; Thermo Fischer Scientific). Extracted DNA was subsequently treated with the different treatment groups with a final concentration of 1 kg/T (prepared in 10 mM PBS). 1.5 uL of treatment solution (prepared at 10 times higher concentration) is added to 13.5 uL of extracted DNA. The solution was mixed well and left to stand at room temperature for one hour. After one hour, the solution was diluted with nuclease-free water 10 times. DNA was subsequently quantified using Quant-iT dsDNA high-sensitivity assay kit (Q33120; Thermo Fischer Scientific). Method (Assay 2: Treatment added to cells followed by extraction). […] Extracted DNA was quantified using Quant-iT dsDNA high-sensitivity assay kit (Q33120; Thermo Fischer Scientific). […]"}, "Enterobacteriaceae": {"system": "Enterobacteriaceae", "format": "cell-based", "method": "Materials and Method. Naturally contaminated layer feed was collected, ground, and mixed well prior to weighing. The ground feed was weighed and separated into 15 different bags, each containing 300 g. The product/prototype was accurately weighed at the needed dosage and adjusted to a total volume of 5 mL prior to adding into the 300 g of feed with a syringe and needle. Product/prototype was added in batches (i.e., 2, 2, and 1 mL separately) and mixed after each addition. Five mL of sterile water was added into the feed and served as the control. The treated feed samples were homogenized after treatment and kept at 25° C. until the day of enumeration.\nTEC of the 15 samples were studied over a period of 22 days with enumeration interval at time points 0, 1 and 22 days. The effect of peroxy acid was neutralized at each time point prior to enumeration. At each time point, 20 mL of 0.1 M sodium thiosulphate was added into 10 g of each treated feed sample in a sterile bag. The mixture was mixed well and left to stand for 10 minutes. After 10 minutes, 70 mL of BPW was added to achieve 10^−1 dilution. The feed suspension was homogenously mixed and left to stand for 30 minutes. Subsequently, the feed suspension was serial diluted to appropriate dilutions for enumeration. 100 uL of the diluted samples were plated onto Violet Red Bile Glucose (VRBG; CM0485 from Oxoid) agar, prepared as per recommended by the supplier. An aliquot of 0.1 mL of the feed suspension was plated onto the agar at each dilution and incubated at 37° C. for 18-24 hours prior to enumeration. Plating was carried out in triplicates. If low TEC is expected, the sample size is increased to 1 mL by plating 300, 300 and 400 uL onto three plates in triplicates for lower detection limit (10 CFU/g). The diluted feed samples (at 10^−1 dilution factor) were kept at 37° C. for 18-24 hours for enrichment prior to streaking. A loopful of diluted feed suspension was streaked onto the VRBG agar and incubated at 37° C. for 18-24 hours to determine qualitatively the presence of Enterobacteriaceae for samples with undetectable TEC."}, "[1]": {"system": "cocktail of four freeze-dried salmonella strains", "assay": "Peroxypropionic acid efficacy against Salmonella in swine feed", "format": "cell-based, Salmonella typhimurium, senftenberg, montevideo, enteritidis", "conditions": "for Average CFU/g feed / Log CFU/g / Total CFU: 4 h; for Total counts in CFU at 4 h (n = 5): swine mash feed, PPA with sodium phosphate buffer (9:1), ~pH 7-8, five replicate cells", "description": "Swine mash feed contains a bigger particle size of corn-soy matrix compared to broiler mash feed. Thus, it could pose a challenge to expect the same antimicrobial efficacy as observed in broiler feed due to the shielding effect. Therefore, to maximize the efficacy of the peroxypropionic acid on the swine feed, an optimal droplet size of the peroxypropionic acid was required to ensure maximum distribution of the product onto the feed. Swine mash feed of 25 g was taken in five individual bags and inoculated with 10 mg cocktail of four freeze-dried salmonella strains of Salmonella typhimurium ATCC 14028, Salmonella senftenberg ATCC 43485, Salmonella montevideo ATCC 8387, and Salmonella enteritidis ATCC 13076 in such a way that the total infection in the feed was ˜2 logs. Then, the feed samples were treated with peroxypropionic acid solution (˜17% PPA, 7% H2O2) and sodium phosphate buffer premix (9:1 ratio) at 1.5 kg/T, 3 Kg/T, and 6 Kg/T. The feed was enumerated completely for Salmonella count using EB plates at 4 h after treatment. Two untreated controls, NC-A and NC-B were kept as negative controls to represent the infection in the feed."}}, "note": "Where “and” joins values, the source holds several entries; their conditions need not be identical. Identical values can stand only once. Like-named read-outs stand apart in the source and are kept apart here. Marks after values point to notes of the source that are not given here.", "data": [{"smiles": "CCC(=O)OO", "note": "[Perpropionic acid, perpropionic acid]", "values": [{"measurement": "DNA concentration, Average ± SD, Assay 1", "setting": "extracted Salmonella DNA", "value": "42.8 ± 2.9^b ng/uL"}, {"measurement": "TEC", "setting": "Enterobacteriaceae; 2.5 kg/ton, post treatment Day 1", "value": 2.41, "unit": "log CFU/g"}, {"measurement": "TEC", "setting": "Enterobacteriaceae; 2.5 kg/ton, post treatment Day 22", "value": "<1.00", "unit": "log CFU/g"}, {"measurement": "TEC", "setting": "Enterobacteriaceae; 2.5 kg/ton, pre-treatment Day 0", "value": 2.12, "unit": "log CFU/g"}, {"measurement": "TEC", "setting": "Enterobacteriaceae; 5.0 kg/ton, post treatment Day 1", "value": 2.47, "unit": "log CFU/g"}, {"measurement": "TEC", "setting": "Enterobacteriaceae; 5.0 kg/ton, post treatment Day 22", "value": 1.73, "unit": "log CFU/g"}, {"measurement": "TEC", "setting": "Enterobacteriaceae; 5.0 kg/ton, pre-treatment Day 0", "value": "<2.00", "unit": "log CFU/g"}, {"measurement": "TEC", "setting": "Enterobacteriaceae; 10.0 kg/ton, post treatment Day 1", "value": 2.19, "unit": "log CFU/g"}, {"measurement": "TEC", "setting": "Enterobacteriaceae; 10.0 kg/ton, post treatment Day 22", "value": "<1.00", "unit": "log CFU/g"}, {"measurement": "TEC", "setting": "Enterobacteriaceae; 10.0 kg/ton, pre-treatment Day 0", "value": "<2.00", "unit": "log CFU/g"}, {"measurement": "Average CFU/g feed", "setting": "[1]; 1.5 Kg/T", "value": 18, "unit": "CFU/g feed"}, {"measurement": "Log CFU/g", "setting": "[1]; 1.5 Kg/T", "value": 1.26, "unit": "Log CFU/g"}, {"measurement": "Total CFU", "setting": "[1]; 1.5 Kg/T", "value": 90, "unit": "CFU"}, {"measurement": "Average CFU/g feed", "setting": "[1]; 3 Kg/T", "value": 0, "unit": "CFU/g feed"}, {"measurement": "Log CFU/g", "setting": "[1]; 3 Kg/T", "value": 0.00, "unit": "Log CFU/g"}, {"measurement": "Total CFU", "setting": "[1]; 3 Kg/T", "value": 0, "unit": "CFU"}, {"measurement": "Average CFU/g feed", "setting": "[1]; 6 Kg/T", "value": 0, "unit": "CFU/g feed"}, {"measurement": "Log CFU/g", "setting": "[1]; 6 Kg/T", "value": 0.00, "unit": "Log CFU/g"}, {"measurement": "Total CFU", "setting": "[1]; 6 Kg/T", "value": 0, "unit": "CFU"}, {"measurement": "Total counts in CFU at 4 h (n = 5)", "setting": "[1]; 1.5 Kg/T, listed as PPA", "value": "20 CFU and 10 CFU (2×) and 50 CFU and 0 CFU"}, {"measurement": "Total counts in CFU at 4 h (n = 5)", "setting": "[1]; 3 Kg/T", "value": 0, "unit": "CFU"}, {"measurement": "Total counts in CFU at 4 h (n = 5)", "setting": "[1]; 6 Kg/T", "value": 0, "unit": "CFU"}]}]}
